Measurements reported in patent US9695155B2, “Herbicidal substituted pyrimidinyloxy benzene compounds” (E. I. DU PONT DE NEMOURS AND COMPANY, priority 2013, dated 2017).

Key:
velvetleaf [1] = test: Test A postemergence; format: in vivo, Abutilon theophrasti
How it was run: (§1)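 Greenhouse pot test, loam/sand soil. Formulation: non-phytotoxic solvent mix plus surfactant. Pre: directed spray onto soil after sowing. Post: plants at 1–2 leaf, 2–10 cm. Rated visually vs untreated controls at ~10 d, 0 (no effect) to 100 (complete control).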

corn [2] = test: Test A postemergence; format: in vivo, Zea mays
How it was run: as §1

rice = test: Test B flooded paddy test; format: in vivo, Oryza sativa; settings: Flood, 250 g ai/ha; 0 to 100 scale where 0 is no effect and 100 is complete control
How it was run: (§2)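 2-leaf stage plants; pots flooded to 3 cm, compound added to paddy water, depth maintained. Greenhouse 13–15 d. Visual rating vs untreated controls, 0 (no effect) to 100 (complete control); dash = no result.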

morningglory [3] = test: Test A postemergence; format: in vivo, Ipomoea spp.
How it was run: as §1

large (Lg) crabgrass [4] = test: Test A preemergence; format: in vivo, Digitaria sanguinalis
How it was run: as §1

wheat [5] = test: Test A preemergence; format: in vivo, Triticum aestivum
How it was run: as §1

morningglory [6] = test: Test A preemergence; format: in vivo, Ipomoea spp.
How it was run: as §1

giant foxtail [7] = test: Test A postemergence; format: in vivo, Setaria faberii
How it was run: as §1

wheat [8] = test: Test A postemergence; format: in vivo, Triticum aestivum
How it was run: as §1

barnyardgrass [9] = test: Test A postemergence; format: in vivo, Echinochloa crus-galli
How it was run: as §1

pigweed [10] = test: Test A preemergence; format: in vivo, Amaranthus retroflexus
How it was run: as §1

giant foxtail [11] = test: Test A preemergence; format: in vivo, Setaria faberii
How it was run: as §1

barnyardgrass [12] = test: Test A preemergence; format: in vivo, Echinochloa crus-galli
How it was run: as §1

pigweed [13] = test: Test A postemergence; format: in vivo, Amaranthus retroflexus
How it was run: as §1

velvetleaf [14] = test: Test A preemergence; format: in vivo, Abutilon theophrasti
How it was run: as §1

Heteranthera limosa = test: Test B flooded paddy test; format: in vivo; settings: Flood, 250 g ai/ha; 0 to 100 scale where 0 is no effect and 100 is complete control
How it was run: as §2

sedge, umbrella = test: Test B flooded paddy test; format: in vivo, Cyperus difformis; settings: Flood, 250 g ai/ha; 0 to 100 scale where 0 is no effect and 100 is complete control
How it was run: as §2

corn [15] = test: Test A preemergence; format: in vivo, Zea mays
How it was run: as §1

barnyardgrass [16] = test: Test B flooded paddy test; format: in vivo, Echinochloa crus-galli; settings: Flood, 250 g ai/ha; 0 to 100 scale where 0 is no effect and 100 is complete control
How it was run: as §2

large (Lg) crabgrass [17] = test: Test A postemergence; format: in vivo, Digitaria sanguinalis
How it was run: as §1

[18] = 125 g ai/ha, 0 to 100 scale where 0 is no effect and 100 is complete control
[19] = 500 g ai/ha, 0 to 100 scale where 0 is no effect and 100 is complete control
[20] = 500 g ai/ha, 0 to 100 scale, 0 no effect, 100 complete control
[21] = 500 g ai/ha, 0 to 100 scale, 0 no effect, 100 complete control, approx. 10 days

N#Cc1cccc(Oc2ncc(Cl)cn2)c1-n1cc(Br)cn1 [Compound 235]
Velvetleaf plant response rating (velvetleaf [1]; [18]): 30 | Plant response rating, Velvetleaf (velvetleaf [1]; [19]): 30 | Corn plant response rating (corn [2]; [18]): 0 | Plant response rating, Corn (corn [2]; [19]): 0 | Plant response rating, Rice (rice): 0 | Morningglory plant response rating (morningglory [3]; [18]): 30 | Plant response rating, Morningglory (morningglory [3]; [19]): 30 | Crabgrass, Large plant response rating (0 to 100 scale) (large (Lg) crabgrass [4]; 125 g ai/ha): 70 | Crabgrass, Large plant response rating (large (Lg) crabgrass [4]; [19]): 100 | Wheat plant response rating (0 to 100 scale) (wheat [5]; 125 g ai/ha): 0 | Wheat plant response rating (wheat [5]; [19]): 0 | Morningglory plant response rating (0 to 100 scale) (morningglory [6]; 125 g ai/ha): 0 | Morningglory plant response rating (morningglory [6]; [19]): 0 | Foxtail, Giant plant response rating (giant foxtail [7]; [18]): 0 | Plant response rating, Foxtail, Giant (giant foxtail [7]; [19]): 30 | Wheat plant response rating (wheat [8]; [18]): 0 | Plant response rating, Wheat (wheat [8]; [19]): 0 | Barnyardgrass plant response rating (barnyardgrass [9]; [18]): 0 | Plant response rating, Barnyardgrass (barnyardgrass [9]; [19]): 0 | Pigweed plant response rating (0 to 100 scale) (pigweed [10]; 125 g ai/ha): 90 | Pigweed plant response rating (pigweed [10]; [19]): 100 | Foxtail, Giant plant response rating (0 to 100 scale) (giant foxtail [11]; 125 g ai/ha): 30 | Foxtail, Giant plant response rating (giant foxtail [11]; [19]): 100 | Barnyardgrass plant response rating (0 to 100 scale, 0 is no effect, 100 is complete control) (barnyardgrass [12]; 125 g ai/ha): 0 | Barnyardgrass plant response rating (barnyardgrass [12]; [19]): 10 | Pigweed plant response rating (pigweed [13]; [18]): 90 | Plant response rating, Pigweed (pigweed [13]; [19]): 100 | Velvetleaf plant response rating (0 to 100 scale) (velvetleaf [14]; 125 g ai/ha): 0 | Velvetleaf plant response rating (velvetleaf [14]; [19]): 0 | Plant response rating, Ducksalad (Heteranthera limosa): 0 | Plant response rating, Sedge, Umbrella (sedge, umbrella): 0 | Corn plant response rating (0 to 100 scale) (corn [15]; 125 g ai/ha): 0 | Corn plant response rating (corn [15]; [19]): 0 | Plant response rating, Barnyardgrass (barnyardgrass [16]): 0 | Crabgrass, Large plant response rating (large (Lg) crabgrass [17]; [18]): 10 | Plant response rating, Crabgrass, Large (large (Lg) crabgrass [17]; [19]): 30

N#Cc1cnc(Oc2cccc(C#N)c2-n2cc(Br)cn2)nc1 [Compound 214]
Velvetleaf plant response rating (velvetleaf [1]; [18]): 0 | Plant response rating, Velvetleaf (velvetleaf [1]; [19]): 0 | Corn plant response rating (corn [2]; [18]): 0 | Plant response rating, Corn (corn [2]; [19]): 0 | Plant response rating, Rice (rice): 0 | Morningglory plant response rating (morningglory [3]; [18]): 0 | Plant response rating, Morningglory (morningglory [3]; [19]): 0 | Crabgrass, Large plant response rating (0 to 100 scale) (large (Lg) crabgrass [4]; 125 g ai/ha): 0 | Crabgrass, Large plant response rating (large (Lg) crabgrass [4]; [19]): 0 | Wheat plant response rating (0 to 100 scale) (wheat [5]; 125 g ai/ha): 0 | Wheat plant response rating (wheat [5]; [19]): 0 | Morningglory plant response rating (0 to 100 scale) (morningglory [6]; 125 g ai/ha): 0 | Morningglory plant response rating (morningglory [6]; [19]): 0 | Foxtail, Giant plant response rating (giant foxtail [7]; [18]): 0 | Plant response rating, Foxtail, Giant (giant foxtail [7]; [19]): 0 | Wheat plant response rating (wheat [8]; [18]): 0 | Plant response rating, Wheat (wheat [8]; [19]): 0 | Barnyardgrass plant response rating (barnyardgrass [9]; [18]): 0 | Plant response rating, Barnyardgrass (barnyardgrass [9]; [19]): 0 | Pigweed plant response rating (0 to 100 scale) (pigweed [10]; 125 g ai/ha): 0 | Pigweed plant response rating (pigweed [10]; [19]): 0 | Foxtail, Giant plant response rating (0 to 100 scale) (giant foxtail [11]; 125 g ai/ha): 0 | Foxtail, Giant plant response rating (giant foxtail [11]; [19]): 0 | Barnyardgrass plant response rating (0 to 100 scale, 0 is no effect, 100 is complete control) (barnyardgrass [12]; 125 g ai/ha): 0 | Barnyardgrass plant response rating (barnyardgrass [12]; [19]): 0 | Pigweed plant response rating (pigweed [13]; [18]): 0 | Plant response rating, Pigweed (pigweed [13]; [19]): 0 | Velvetleaf plant response rating (0 to 100 scale) (velvetleaf [14]; 125 g ai/ha): 0 | Velvetleaf plant response rating (velvetleaf [14]; [19]): 0 | Plant response rating, Ducksalad (Heteranthera limosa): 0 | Plant response rating, Sedge, Umbrella (sedge, umbrella): 0 | Corn plant response rating (0 to 100 scale) (corn [15]; 125 g ai/ha): 0 | Corn plant response rating (corn [15]; [19]): 0 | Plant response rating, Barnyardgrass (barnyardgrass [16]): 0 | Crabgrass, Large plant response rating (large (Lg) crabgrass [17]; [18]): 0 | Plant response rating, Crabgrass, Large (large (Lg) crabgrass [17]; [19]): 0

FC(F)(F)c1ccn(-c2ccccc2Oc2ncc(Br)cn2)n1 [Compound 1]
Plant response rating, Velvetleaf (velvetleaf [1]; [18]): 20 | Plant response rating, Velvetleaf (velvetleaf [1]; [20]): 70 | Plant response rating, Corn (corn [2]; [18]): 0 | Plant response rating, Corn (corn [2]; [20]): 10 | Plant response rating, Rice (rice): 0 | Plant response rating, Morningglory (morningglory [3]; [18]): 0 | Plant response rating, Morningglory (morningglory [3]; [20]): 20 | Crabgrass, Large plant response rating (large (Lg) crabgrass [4]; [18]): 50 | Crabgrass, Large plant response rating (large (Lg) crabgrass [4]; [21]): 100 | Wheat plant response rating (wheat [5]; [18]): 0 | Wheat plant response rating (wheat [5]; [21]): 0 | Morningglory plant response rating (morningglory [6]; [18]): 0 | Morningglory plant response rating (morningglory [6]; [21]): 0 | Plant response rating, Foxtail, Giant (giant foxtail [7]; [18]): 10 | Plant response rating, Foxtail, Giant (giant foxtail [7]; [20]): 60 | Plant response rating, Wheat (wheat [8]; [18]): 0 | Plant response rating, Wheat (wheat [8]; [20]): 0 | Plant response rating, Barnyardgrass (barnyardgrass [9]; [18]): 10 | Plant response rating, Barnyardgrass (barnyardgrass [9]; [20]): 30 | Pigweed plant response rating (pigweed [10]; [18]): 60 | Pigweed plant response rating (pigweed [10]; [21]): 100 | Foxtail, Giant plant response rating (giant foxtail [11]; [18]): 60 | Foxtail, Giant plant response rating (giant foxtail [11]; [21]): 100 | Barnyardgrass plant response rating (barnyardgrass [12]; [18]): 20 | Barnyardgrass plant response rating (barnyardgrass [12]; [21]): 70 | Plant response rating, Pigweed (pigweed [13]; [18]): 50 | Plant response rating, Pigweed (pigweed [13]; [20]): 100 | Velvetleaf plant response rating (velvetleaf [14]; [18]): 0 | Velvetleaf plant response rating (velvetleaf [14]; [21]): 20 | Plant response rating, Ducksalad (Heteranthera limosa): 0 | Plant response rating, Sedge, Umbrella (sedge, umbrella): 0 | Corn plant response rating (corn [15]; [18]): 0 | Corn plant response rating (corn [15]; [21]): 0 | Plant response rating, Barnyardgrass (barnyardgrass [16]): 0 | Plant response rating, Crabgrass, Large (large (Lg) crabgrass [17]; [18]): 20 | Plant response rating, Crabgrass, Large (large (Lg) crabgrass [17]; [20]): 50
